Source: patent EP0153845A2, “CRF analogs” (THE SALK INSTITUTE FOR BIOLOGICAL STUDIES, priority 1984, dated 1985)
Square brackets hold non-standard residues; d marks the D form. Peptide text beside a SMILES is read from it. Nle = CCCC[C@H](N)C(=O)O

Target: T1, cultured rat pituitary cells (Rattus norvegicus, UniProt P35353)
T1 sequence (P35353 24-415): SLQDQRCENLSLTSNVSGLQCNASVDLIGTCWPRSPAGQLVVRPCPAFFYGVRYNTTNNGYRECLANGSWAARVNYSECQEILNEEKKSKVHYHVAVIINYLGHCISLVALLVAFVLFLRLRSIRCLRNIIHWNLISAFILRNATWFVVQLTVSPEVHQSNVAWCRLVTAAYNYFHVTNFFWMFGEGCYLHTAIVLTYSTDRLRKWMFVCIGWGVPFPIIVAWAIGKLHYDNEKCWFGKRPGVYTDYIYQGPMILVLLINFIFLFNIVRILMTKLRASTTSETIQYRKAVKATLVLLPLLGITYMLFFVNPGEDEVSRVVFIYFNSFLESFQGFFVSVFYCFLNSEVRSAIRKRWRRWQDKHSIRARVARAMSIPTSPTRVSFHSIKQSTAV
Assay: Block of ACTH and β-endorphin secretion by cultured rat pituitary cells by CRF antagonists (procedure of Example XLIII)
Type: cell-based
Details: general procedure of Example XLIII
Procedure: The effectiveness of synthetic CRF antagonists to block the secretion of ACTH and B-endorphin by cultured rat pituitary cells is measured using the procedure as generally set forth in Vale et al., Endocrinology, 91, 562 (1972). In vivo testing is carried out using the general procedure set forth in C. Rivier et al., Science, 218, 377 (1982).

| Molecule | secretion of ACTH and β-END-LI (antagonist test) |
| --- | --- |
| CCCC[C@H](NC(=O)[C@H](CCC(=O)O)NC(=O)[C@H](CC(C)C)NC(=O)[C@@H](NC(=O)[C@H](CCC(=O)O)NC(=O)[C@H](CCCNC(=N)N)NC(=O)[C@H](CC(C)C)NC(=O)[C@H](CC(C)C)NC(=O)[C@H](Cc1c[nH]cn1)NC(=O)[C@H](Cc1ccccc1)NC(=O)[C@@H](NC(=O)[C@H](CC(C)C)NC(=O)[C@@H](N)CC(=O)O)[C@@H](C)O)C(C)C)C(=O)N[C@@H](C)C(=O)N[C@@H](CCCNC(=N)N)C(=O)N[C@@H](C)C(=O)N[C@@H](CCC(=O)O)C(=O)N[C@@H](CCC(N)=O)C(=O)N[C@@H](CC(C)C)C(=O)N[C@@H](C)C(=O)N[C@@H](CCC(N)=O)C(=O)N[C@@H](CCC(N)=O)C(=O)N[C@@H](C)C(=O)N[C@@H](Cc1ccc(O)cc1)C(=O)N[C@@H](CO)C(=O)N[C@@H](CC(N)=O)C(=O)N[C@@H](CCCNC(=N)N)C(=O)N[C@@H](CCCCN)C(=O)N[C@@H](CC(C)C)C(=O)N[C@@H](CCSC)C(=O)N[C@@H](CCC(=O)O)C(=O)N[C@H](C(=O)N[C@H](C(N)=O)[C@@H](C)CC)[C@@H](C)CC [[Nle^21, Tyr^32]-hCRF(9-41)] (H-DLTFHLLREVLE[Nle]ARAEQLAQQAYSNRKLMEII-NH2) | inhibits |
| H-DLTFELLREVLEVARAEQLAQQAHSNRKLMEII-NH2 [[G1u^13, Val^21]-hCRF(9-41)] | inhibits |
| H-DLTLELLREMLEMAKAEQEAEQAALNRLLLEEA-NH2 [[Leu^12, Glu^13]-AHC(9-41)] | inhibits |
| CCCC[C@H](NC(=O)[C@H](CCC(=O)O)NC(=O)[C@H](CC(C)C)NC(=O)[C@H](CCCC)NC(=O)[C@H](CCC(=O)O)NC(=O)[C@H](CCCNC(=N)N)NC(=O)[C@H](CC(C)C)NC(=O)[C@H](CC(C)C)NC(=O)[C@H](Cc1c[nH]cn1)NC(=O)[C@H](Cc1ccccc1)NC(=O)[C@@H](NC(=O)[C@H](CC(C)C)NC(=O)[C@H](CC(=O)O)NC(=O)[C@@H](N)CC(C)C)[C@@H](C)O)C(=O)N[C@@H](C)C(=O)N[C@@H](CCCCN)C(=O)N[C@@H](C)C(=O)N[C@@H](CCC(=O)O)C(=O)N[C@@H](CCC(N)=O)C(=O)N[C@@H](CCC(=O)O)C(=O)N[C@@H](C)C(=O)N[C@@H](CCC(=O)O)C(=O)N[C@@H](CCC(N)=O)C(=O)N[C@@H](C)C(=O)N[C@@H](C)C(=O)N[C@@H](CC(C)C)C(=O)N[C@@H](CC(N)=O)C(=O)N[C@@H](CCCNC(=N)N)C(=O)N[C@@H](CC(C)C)C(=O)N[C@@H](CC(C)C)C(=O)N[C@@H](CC(C)C)C(=O)N[C@@H](CCC(=O)O)C(=O)N[C@@H](CCC(=O)O)C(=O)N[C@@H](C)C(N)=O [[Nle^18,21]-AHC(8-41)] (H-LDLTFHLLRE[Nle]LE[Nle]AKAEQEAEQAALNRLLLEEA-NH2) | inhibits |
| CCCC[C@H](NC(=O)[C@H](CCC(=O)O)NC(=O)[C@H](CC(C)C)NC(=O)[C@H](CCCC)NC(=O)[C@H](CCC(=O)O)NC(=O)[C@H](CCCNC(=N)N)NC(=O)[C@H](CC(C)C)NC(=O)[C@H](CC(C)C)NC(=O)[C@H](Cc1c[nH]cn1)NC(=O)[C@H](Cc1ccccc1)NC(=O)[C@@H](NC(=O)[C@H](CC(C)C)NC(=O)[C@@H](N)CC(=O)O)[C@@H](C)O)C(=O)N[C@@H](C)C(=O)N[C@@H](CCCCN)C(=O)N[C@@H](C)C(=O)N[C@@H](CCC(=O)O)C(=O)N[C@@H](CCC(N)=O)C(=O)N[C@@H](CCC(=O)O)C(=O)N[C@@H](C)C(=O)N[C@@H](CCC(=O)O)C(=O)N[C@@H](CCC(N)=O)C(=O)N[C@@H](C)C(=O)N[C@@H](C)C(=O)N[C@@H](CC(C)C)C(=O)N[C@@H](CC(N)=O)C(=O)N[C@@H](CCCNC(=N)N)C(=O)N[C@@H](CC(C)C)C(=O)N[C@@H](CC(C)C)C(=O)N[C@@H](CC(C)C)C(=O)N[C@@H](CCC(=O)O)C(=O)N[C@@H](CCC(=O)O)C(=O)N[C@@H](C)C(N)=O [[Nie^18,21]-AHC(9-41)] (H-DLTFHLLRE[Nle]LE[Nle]AKAEQEAEQAALNRLLLEEA-NH2) | inhibits |
| CCCC[C@H](NC(=O)[C@H](CCC(=O)O)NC(=O)[C@H](CC(C)C)NC(=O)[C@H](CCCC)NC(=O)[C@H](CCC(=O)O)NC(=O)[C@H](CCCNC(=N)N)NC(=O)[C@H](CC(C)C)NC(=O)[C@H](CC(C)C)NC(=O)[C@H](Cc1c[nH]cn1)NC(=O)[C@H](Cc1ccccc1)NC(=O)[C@@H](NC(=O)[C@@H](N)CC(C)C)[C@@H](C)O)C(=O)N[C@@H](C)C(=O)N[C@@H](CCCCN)C(=O)N[C@@H](C)C(=O)N[C@@H](CCC(=O)O)C(=O)N[C@@H](CCC(N)=O)C(=O)N[C@@H](CCC(=O)O)C(=O)N[C@@H](C)C(=O)N[C@@H](CCC(=O)O)C(=O)N[C@@H](CCC(N)=O)C(=O)N[C@@H](C)C(=O)N[C@@H](C)C(=O)N[C@@H](CC(C)C)C(=O)N[C@@H](CC(N)=O)C(=O)N[C@@H](CCCNC(=N)N)C(=O)N[C@@H](CC(C)C)C(=O)N[C@@H](CC(C)C)C(=O)N[C@@H](CC(C)C)C(=O)N[C@@H](CCC(=O)O)C(=O)N[C@@H](CCC(=O)O)C(=O)N[C@@H](C)C(N)=O [[Nle^18,21]-AHC(10-41)] (H-LTFHLLRE[Nle]LE[Nle]AKAEQEAEQAALNRLLLEEA-NH2) | inhibits |
| H-LDLTFHLLREVLEMAKAEQLAQQAHSNRKLLEII-NH2 [[Lys^23, Leu^38]-hCRF(8-41)] | inhibits |
| H-DLSLELLRKMIEIAKQEKEKQQAANNRLLMDTI-NH2 [[Ala^21, Met^37]-sauvagine(8-40)] | inhibits |
| H-LDLTLELLREMLEMEKAEKEAEQAALNRLLLEEA-NH2 [[G1u^13,22, Leu^l2, Lys^26]-AHC(8-41)] | inhibits |
| CCCC[C@H](NC(=O)[C@@H](NC(=O)[C@@H](N)CC(C)C)[C@@H](C)O)C(=O)N[C@@H](Cc1c[nH]cn1)C(=O)N[C@@H](CC(C)C)C(=O)N[C@@H](CC(C)C)C(=O)N[C@@H](CCCNC(=N)N)C(=O)N[C@@H](CCC(=O)O)C(=O)N[C@H](C(=O)N[C@@H](CC(C)C)C(=O)N[C@@H](CCC(=O)O)C(=O)N[C@@H](CCSC)C(=O)N[C@@H](C)C(=O)N[C@@H](CCCNC(=N)N)C(=O)N[C@@H](C)C(=O)N[C@@H](CCC(=O)O)C(=O)N[C@@H](CCC(N)=O)C(=O)N[C@@H](CC(C)C)C(=O)N[C@@H](C)C(=O)N[C@@H](CCC(N)=O)C(=O)N[C@@H](CCC(N)=O)C(=O)N[C@@H](C)C(=O)N[C@@H](Cc1c[nH]cn1)C(=O)N[C@@H](CO)C(=O)N[C@@H](CC(N)=O)C(=O)N[C@@H](CCCNC(=N)N)C(=O)N[C@@H](CCCCN)C(=O)N[C@@H](CC(C)C)C(=O)N[C@@H](CCSC)C(=O)N[C@@H](CCC(=O)O)C(=O)N[C@H](C(=O)N[C@H](C(N)=O)[C@@H](C)CC)[C@@H](C)CC)C(C)C [[N1e^12]-hCRF(10-41)] (H-LT[Nle]HLLREVLEMARAEQLAQQAHSNRKLMEII-NH2) | inhibits |
| H-DLTFALLREMLEMAKAEQEAEQAALNRLLLEEA-NH2 [[Ala^13]-AHC(9-41)] | inhibits |
| CCCC[C@H](NC(=O)[C@@H](NC(=O)[C@H](CCC(=O)O)NC(=O)[C@H](CC(C)C)NC(=O)[C@H](CC(C)C)NC(=O)[C@H](CCCCN)NC(=O)[C@H](CCCNC(=N)N)NC(=O)[C@H](CC(N)=O)NC(=O)[C@H](CO)NC(=O)[C@H](Cc1c[nH]cn1)NC(=O)[C@H](C)NC(=O)[C@H](CCC(N)=O)NC(=O)[C@H](CCC(N)=O)NC(=O)[C@H](C)NC(=O)[C@H](CC(C)C)NC(=O)[C@H](CCC(N)=O)NC(=O)[C@H](CCC(=O)O)NC(=O)[C@H](C)NC(=O)[C@H](CCCNC(=N)N)NC(=O)[C@H](C)NC(=O)[C@H](C)NC(=O)[C@H](CCC(=O)O)NC(=O)[C@H](CC(C)C)NC(=O)[C@@H](NC(=O)[C@H](CCC(=O)O)NC(=O)[C@H](CCCNC(=N)N)NC(=O)[C@H](CC(C)C)NC(=O)[C@H](CC(C)C)NC(=O)[C@H](Cc1c[nH]cn1)NC(=O)[C@H](Cc1ccccc1)NC(=O)[C@@H](NC(=O)[C@H](CC(C)C)NC(=O)[C@@H](N)CC(=O)O)[C@@H](C)O)C(C)C)[C@@H](C)CC)C(N)=O [[Ala, Leu^38, Nle^41]-hCRF(9-41)] (H-DLTFHLLREVLEAARAEQLAQQAHSNRKLLEI[Nle]-NH2) | inhibits |
| CCCC[C@H](N)C(=O)N[C@@H](CC(=O)O)C(=O)N[C@@H](CC(C)C)C(=O)N[C@@H](CO)C(=O)N[C@@H](Cc1ccccc1)C(=O)N[C@@H](Cc1c[nH]cn1)C(=O)N[C@@H](CC(C)C)C(=O)N[C@@H](CC(C)C)C(=O)N[C@@H](CCCNC(=N)N)C(=O)N[C@@H](CCC(=O)O)C(=O)N[C@H](C(=O)N[C@@H](CC(C)C)C(=O)N[C@@H](CCC(=O)O)C(=O)N[C@@H](CCSC)C(=O)N[C@@H](C)C(=O)N[C@@H](CCCNC(=N)N)C(=O)N[C@@H](C)C(=O)N[C@@H](CCC(=O)O)C(=O)N[C@@H](CCC(N)=O)C(=O)N[C@@H](CC(C)C)C(=O)N[C@@H](C)C(=O)N[C@@H](CCC(N)=O)C(=O)N[C@@H](CCC(N)=O)C(=O)N[C@@H](C)C(=O)N[C@@H](Cc1c[nH]cn1)C(=O)N[C@@H](CC(C)C)C(=O)N[C@@H](CC(N)=O)C(=O)N[C@@H](CCCNC(=N)N)C(=O)N[C@@H](CCCCN)C(=O)N[C@@H](CC(C)C)C(=O)N[C@@H](CCSC)C(=O)N[C@@H](CCC(=O)O)C(=O)N[C@H](C(=O)N[C@H](C(N)=O)[C@@H](C)CC)[C@@H](C)CC)C(C)C [[Nle^8, Ser^ll, Leu^33]-hCRF(8-41)] (H-[Nle]DLSFHLLREVLEMARAEQLAQQAHLNRKLMEII-NH2) | inhibits |
| Ac-DLTFHLLREVLEMARAEQLAQQAHSNRKLMDII-NH2 [[Acetyl-Asp^9, Asp^39]-hCRF(9-41)] | inhibits |
